Data: patent US6878364B2, “Animal model for flaviviridae infection” (Cornell Research Foundation, Inc., priority 2000, dated 2005)
Where two headings read alike, the source gives them in different places.

Assays:
[1] = test system: cpBVDV (cytopathogenic NADL isolate of BVDV); experiment: microbe, parasite or virus in culture; settings: Bovine viral diarrhea virus isolates and strains, in Bos taurus, 72 h, read-out: ckEC50 (drug concentration sufficient to inhibit 50% of viral induced cell killing)
Protocol: (§1) BVDV stocks and titration: The cytopathogenic NADL isolate of BVDV (cpBVDV) was used for the purposes of this study. A viral stock was made by freeze-thaw of a bovine testicular cell line 5 days after infection with cpBVDV. Virus propagated in bovine cells and woodchuck cell cultures was tittered in NCL cells by measuring cytopathic effects (CPE). NCL cells grown to confluence, were passaged to 96 well microtiter plates at a density of 2×10^4 cells/well (5×10^5/cm^2) and incubated for one hour to allow cell attachment. After attachment, cell cultures were inoculated with serially diluted tissue culture supernatant samples. The endpoint BVDV titer was taken as the reciprocal of the last dilution in which cells were killed 5 days post-infection in one of three triplicate wells, assayed by methylene blue staining.
(§2) Methylene blue assay: A quantitative measure of cell numbers was obtained through reading the absorbance of methylene blue (Sigma, St. Louis, Mo.) uptake by viable cells. Briefly, three days after infection of cells with cpBVDV, cultures were rinsed with phosphate buffered saline (PBS; Life Technologies) followed by fixation in a Hanks balanced salt solution (HBSS; LifeTechnologies) consisting of 1.25% glutaraldehyde (Fisher Scientific, Fair Lawn, N.J.) and 0.06% methylene blue (Sigma), for 1 hour at 37° C. […] The absorbance of the methylene blue in solution was measured using an ELISA plate reader (Model EL311; Bio-Tek instruments Inc., Winooski, Vt.) with a light filter setting at 630 nm. A standard curve was established for each cell line relating absorbance with cell numbers. […]
(§3) The medium was replenished daily with drug and the antiviral effect, cytotoxicity, and reduction in viral yield determined after three days of treatment.
(§4) Cell killing due to cpBVDV infection and drug cytotoxicity was calculated for each experimental data point and plotted. […] A drug concentration sufficient to inhibit 50% of viral induced cell killing (ckEC50) was determined using a peak, log normal, 4 parameter equation. […] A selectivity index (SI) was determined as the CC50/EC90 ratio.

[2] = test system: cpBVDV (cytopathogenic NADL isolate of BVDV)
Protocol: Virus propagated in bovine cells and woodchuck cell cultures was tittered in NCL cells by measuring cytopathic effects (CPE). NCL cells grown to confluence, were passaged to 96 well microtiter plates at a density of 2×10^4 cells/well (5×10^5/cm^2) and incubated for one hour to allow cell attachment. After attachment, cell cultures were inoculated with serially diluted tissue culture supernatant samples. The endpoint BVDV titer was taken as the reciprocal of the last dilution in which cells were killed 5 days post-infection in one of three triplicate wells, assayed by methylene blue staining.
Antiviral assay: A lyophilized form of Ribavirin (Virazole^R; Viratek, Inc., Covina, Calif.) was dissolved in H2O to a yield a stock concentration of 100 mM and serially diluted two fold in culture medium prior to testing over a range of 100-0.049 μM. Ribavirin was evaluated in woodchuck WCH-8 cells and in bovine NCL cells in a 96 well format using the methylene blue assay to measure cell viability. The medium was replenished daily with drug and the antiviral effect, cytotoxicity, and reduction in viral yield determined after three days of treatment. […]
Cell killing due to cpBVDV infection and drug cytotoxicity was calculated for each experimental data point and plotted. […] A selectivity index (SI) was determined as the CC50/EC90 ratio.

HCV = settings: cited from earlier work
in vitro = format: cell-based; settings: bovine
[3] = Cytotoxicity on uninfected woodchuck primary hepatocytes (CytoTox96); format: cell-based
[4] = test system: cpBVDV (cytopathogenic NADL isolate of BVDV); remark: listed apart in the source
Protocol: as §1, §2, §3, §4

[5] = test system: cpBVDV (cytopathogenic NADL isolate of BVDV); remark: listed apart in the source
Protocol: as §1, §2, §3, §4

[6] = test system: cpBVDV (cytopathogenic NADL isolate of BVDV); experiment: microbe, parasite or virus in culture; settings: Bovine viral diarrhea virus isolates and strains, in Marmota monax, 72 h, read-out: ckEC50 (drug concentration sufficient to inhibit 50% of viral induced cell killing)
Protocol: as §1, §2, §3, §4

[7] = Cytotoxicity on uninfected WCH-8 cells (methylene blue assay); format: cell-based; settings: woodchuck, uninfected woodchuck hepatic WCH-8 cells, three days of treatment

In the case of NC(=O)c1ncn([C@@H]2O[C@H](CO)[C@@H](O)[C@H]2O)n1 [Ribavirin, 1-β-D-ribofuranosyl-1-1,2,4-triazole-3-carboxamide], the EC50 [1] is reported as 5.2 µM, the “tEC90 (drug concentration which reduced viral titers by 90%)” value ([2]; cpBVDV-infected woodchuck primary hepatocytes) is reported as 3 µM and the “selectivity index (CC50/tEC90)” value ([2]; woodchuck primary hepatocytes) is reported as 14.9. The “patients with serum amino transferase levels reduced to normal” value (HCV) was 40%, the CC50 at 3 days (in vitro) was 4.3 µM and the CC50 [3] was 44.8 µM. For the same molecule, the “selectivity index (CC50/tEC90)” value ([4]; WCH-8 cells) was 2.7, the “tEC90 (drug concentration which reduced viral titers by 90%)” value ([4]; cpBVDV-infected WCH-8 cells, three days of treatment) was 1.1 µM and the “selectivity index (CC50/tEC90)” value ([5]; NCL cells) was 1.7. For the same molecule, the “tEC90 (drug concentration which reduced viral titers by 90%)” value ([5]; cpBVDV-infected NCL cells, three days of treatment) was 3.1 µM, the EC50 [6] was 1.5 µM and the CC50 at 3 days [7] was 2.9 µM.
